≈ marks a conversion by molar mass, not a printed value.
Columns and labels:
[1] = molecular target: 5-alpha-reductase; assay: In vitro 5-alpha-reductase assay (NADPH absorbance at 340 nm, liver S9 fraction); assay type: biochemical; details: 20 μg liver S9 fraction, 6 minutes at 37° C., Finasteride 20-70 ng/mL
Procedure: In vitro 5-alpha-reductase assay was performed according to Sun et al. (1998) with some modifications. NADPH has characteristic absorbance at 340 nm, and the absorbance spectrum may be used to measure the decline in NADPH concentration as a measure of enzyme activity. Briefly, the reaction mixture contained 40 mM phosphate buffer pH 7.0, 93 μM NADPH, 2.265 μM testosterone and 20 μg liver S9 fraction with or without different concentrations of the extract (2-6 μg/mL) or reference compound Finasteride (20-70 ng/mL), incubated for 6 minutes at 37° C. The absorbance was read at 340 nm in UV-visible spectrophotometer. IC50 values were determined for the extract and Finasteride.

[2] = test system: testosterone induced BPH model rats; assay: Antioxidant activity in prostate tissue of BPH model rats (SOD, catalase, GSH, glutathione reductase); assay type: in vivo, Wistar rats; details: Finasteride 1 mg/kg, in comparison with BPH group (p<0.001)
[3] = test system: testosterone induced BPH model rats; assay: Histopathological examination of prostate tissue of BPH model rats; assay type: in vivo, Wistar rats; details: H&E stained sections
[4] = test system: testosterone induced BPH model rats; assay: Prostate growth in testosterone-induced BPH model rats; assay type: in vivo, Wistar rats; details: 28 days; for Growth inhibition (%): prostate growth, Fina group, 1 mg/kg, mean ± SD n = 6

IC50 value, 5-alpha-reductase activity [1]: 0.0632 µg/mL (≈ 0.17 µM)
SMILES: CC(C)(C)NC(=O)[C@H]1CC[C@H]2[C@@H]3CC[C@H]4NC(=O)C=C[C@]4(C)[C@H]3CC[C@]12C [Finasteride]
SOD activity [2]: significantly increased
pathological changes (hyperplastic patterns) in prostate tissue [3]: not evident
prostate weights ([4]; in comparison with BPH control (p<0.001)): reduced significantly
Growth inhibition (%) [4]: 90.22%
Growth inhibition (%) ([4]; listed as Fina): 90.22 ± 10.85%

Reference: patent US20240066089A1, “ARTOCARPUS HETEROPHYLLUS COMPOSITION AND METHOD OF PROMOTING URINARY TRACT HEALTH” (priority 2022, published 2024)
